The OPERA property sets (Mansouri et al. 2018)

Row | Compound | logP
1 | CC(C)(C)S(=O)(=O)CC(Cc1ccccc1)C(=O)NC(Cc1cnc[nH]1)C(=O)NC(CC1CCCCC1)C(O)C(O)C1CC1 (stereo not given) | 2.75
2 | N[C@@H](Cc1ccccc1)C(=O)O (racemic) | -1.38
3 | Cc1cnc(NC(=O)C2=C(O)c3ccccc3S(=O)(=O)N2C)s1 | 3.43
4 | CCCc1c2c(c(O)c3c(=O)cc(C(=O)O)oc13)CCCC2 | 5
5 | CCCCCCCCCNCc1ccc(C)cc1 | 5.7
6 | CC(C)(C)S(=O)(=O)CC(Cc1cccc2ccccc12)C(=O)NC(Cc1cnc[nH]1)C(=O)NC(CC1CCCCC1)C(O)C(O)C1CC1 (stereo not given) | 3.15
7 | CCc1cc(CC(C#N)C#N)cc(CC)c1O | 4.12
8 | COS(=O)c1ccc(O)cc1 (stereo not given) | 0.58
9 | COc1ccc(Cc2nccc3cc(OC)c(OC)cc23)cc1OC | 2.95
10 | COc1ccccc1OCCNCC(O)COc1cccc2[nH]c3ccccc3c12 (stereo not given) | 4.19
11 | O=C1O[C@H]([C@@H](O)CO)C(O)=C1O | -1.85
12 | CCN(CC)CCOC(=O)c1ccc(N)cc1 | 2.14
13 | N#CC(C#N)Cc1ccc(O)cc1 | 3.08
14 | CCCCNc1ccc(C(=O)OCCN(C)C)cc1 | 3.51
15 | CN1C(C(=O)Nc2ccccn2)=C(O)c2ccccc2S1(=O)=O | 3.06
